The series deals with CCRIS mutagenicity, Ames/micronucleus/aberration tests. Kind of series: CCRIS mutagenicity studies.
[1] abbreviates: Test System: AMES SALMONELLA TYPHIMURIUM, Strain/Indicator: TA98, Metabolic Activation: NONE, Method: STANDARD PLATE.
The mark [2] stands for this setting: Test System: AMES SALMONELLA TYPHIMURIUM, Strain/Indicator: TA100, Metabolic Activation: NONE, Method: STANDARD PLATE.
Where [3] appears, read: Test System: AMES SALMONELLA TYPHIMURIUM, Strain/Indicator: TA100, Metabolic Activation: NONE, Method: PREINCUBATION

The source made the active and inactive calls. No rule for the calls is given here.

Turning to `Oc1cc(O)c2c(c1)O[C@H](c1cc(O)c(O)c(O)c1)[C@H](O)C2`, the mutagenic call reads like this: (End Point: In vitro chromosomal aberrations, Test System: Chinese hamster (CHL/IU) cells, Metabolic Activation: None) “active; positive (structural changes: gaps, breaks, aberrations)”; (Test System: Ames Salmonella typhimurium, Strain/Indicator: TA102, Metabolic Activation: None, Method: Preincubation) “inactive; negative”; (Test System: Ames Salmonella typhimurium, Strain/Indicator: TA102, Metabolic Activation: Rat, Liver, S-9, Aroclor 1254 in 0.154 M KCl, Method: Preincubation) “inactive; negative”; (Test System: E. coli, Strain/Indicator: WP2 uvrA/pKM101, Metabolic Activation: None, Method: Preincubation) “inactive; negative”.
`O=[N+]([O-])c1ccc2c([N+](=O)[O-])cc3ccccc3c2c1`: the mutagenic call is “active; positive” (Test System: AMES SALMONELLA TYPHIMURIUM, Strain/Indicator: TA98(1,8-DNP6), Metabolic Activation: NONE, Method: STANDARD PLATE); “active; positive” (Test System: AMES SALMONELLA TYPHIMURIUM, Strain/Indicator: TA98(NR), Metabolic Activation: NONE, Method: STANDARD PLATE); “active; positive” under setting [1]; “active; positive” under setting [2]; “active; positive” (Test System: AMES SALMONELLA TYPHIMURIUM, Strain/Indicator: YG1021, Metabolic Activation: NONE, Method: STANDARD PLATE); “active; positive” (Test System: AMES SALMONELLA TYPHIMURIUM, Strain/Indicator: YG1024, Metabolic Activation: NONE, Method: STANDARD PLATE). For the same compound, the mutagenic call (Test System: AMES SALMONELLA TYPHIMURIUM, Strain/Indicator: YG1026, Metabolic Activation: NONE, Method: STANDARD PLATE) was “active; positive” and the mutagenic call (Test System: AMES SALMONELLA TYPHIMURIUM, Strain/Indicator: YG1029, Metabolic Activation: NONE, Method: STANDARD PLATE) is “active; positive”.
As for `CCNc1nc(NC(C)C)[nH]c(=O)n1`, the mutagenic call was “inactive; negative” (Test System: AMES SALMONELLA TYPHIMURIUM, Strain/Indicator: TA97, Metabolic Activation: NONE, Method: STANDARD PLATE); “inactive; negative” under setting [1]; “inactive; negative” under setting [2].
With `COc1ccc2c(c1)nc(N)n2C`, the mutagenic call was “active; positive” (Test System: AMES SALMONELLA TYPHIMURIUM, Strain/Indicator: TA98, Metabolic Activation: RAT, LIVER, S-9, AROCLOR 1254, Method: PREINCUBATION) and “active; positive” (Test System: AMES SALMONELLA TYPHIMURIUM, Strain/Indicator: TA100, Metabolic Activation: RAT, LIVER, S-9, AROCLOR 1254, Method: PREINCUBATION).
Take `CN(C)c1ccc(/C=C/c2ccc([N+](=O)[O-])cc2)cc1`: the mutagenic call (Test System: AMES SALMONELLA TYPHIMURIUM, Strain/Indicator: TA98, Metabolic Activation: HAMSTER, LIVER, S-9, AROCLOR 1254 (10%), Method: STANDARD PLATE) was “active; positive”; the mutagenic call under setting [1] was “inactive; negative”; the mutagenic call (Test System: AMES SALMONELLA TYPHIMURIUM, Strain/Indicator: TA98, Metabolic Activation: RAT, LIVER, S-9, AROCLOR 1254 (10%), Method: STANDARD PLATE) is “active; positive”; the mutagenic call (Test System: AMES SALMONELLA TYPHIMURIUM, Strain/Indicator: TA100, Metabolic Activation: HAMSTER, LIVER, S-9, AROCLOR 1254 (10%), Method: STANDARD PLATE) was “active; positive”; the mutagenic call under setting [2] was “inactive; negative”; the mutagenic call (Test System: AMES SALMONELLA TYPHIMURIUM, Strain/Indicator: TA100, Metabolic Activation: RAT, LIVER, S-9, AROCLOR 1254 (10%), Method: STANDARD PLATE) was “active; positive”. For the same compound, the mutagenic call is “inactive; negative” (Test System: MOUSE LYMPHOMA, Strain/Indicator: L5178Y (TK+/TK-), Metabolic Activation: NONE, Method: SUSPENSION/PLATE) and “active; positive. reevaluation of results: positive” (Test System: MOUSE LYMPHOMA, Strain/Indicator: L5178Y (TK+/TK-), Metabolic Activation: RAT, LIVER, S-9, AROCLOR 1254, Method: SUSPENSION/PLATE).
Regarding `Nc1ccccc1C(=O)C[C@H](N)C(=O)O`, the mutagenic call under setting [3] was “inactive; negative”.
`Nc1ccc2cccnc2c1`: the mutagenic call by setting is: (Test System: AMES SALMONELLA TYPHIMURIUM, Strain/Indicator: TA98, Metabolic Activation: NONE, Method: PREINCUBATION) “inactive; negative”; (Test System: AMES SALMONELLA TYPHIMURIUM, Strain/Indicator: TA98, Metabolic Activation: RAT, LIVER, S-9, KANECHLOR 500 OR PHENOBARBITAL AND BETA-NAPHTHOFLAVONE, Method: PREINCUBATION) “active; positive”; under setting [3], “active; positive”; (Test System: AMES SALMONELLA TYPHIMURIUM, Strain/Indicator: TA100, Metabolic Activation: RAT, LIVER, S-9, KANECHLOR 500 OR PHENOBARBITAL AND BETA-NAPHTHOFLAVONE, Method: PREINCUBATION) “active; positive”.
Consider `CC(=O)Nc1ccc(-c2ccccc2)cc1`, for which the mutagenic call is, setting by setting: (Test System: AMES SALMONELLA TYPHIMURIUM, Strain/Indicator: TA98, Metabolic Activation: RAT, LIVER, S-9, KC500 OR PHENOBARBITAL, Method: LIQUID SUSPENSION) “active; positive”; (Test System: AMES SALMONELLA TYPHIMURIUM, Strain/Indicator: TA100 (1,8-DNP), Metabolic Activation: MOUSE LIVER S-9, AROCLOR 1254, 10%, Method: PREINCUBATION) “active; positive”; (Test System: AMES SALMONELLA TYPHIMURIUM, Strain/Indicator: TA100 (1,8-DNP), Metabolic Activation: RAT LIVER S-9, AROCLOR 1254, 10%, Method: PREINCUBATION) “active; positive”; (Test System: AMES SALMONELLA TYPHIMURIUM, Strain/Indicator: TA100, Metabolic Activation: MOUSE LIVER S-9, AROCLOR 1254, 10%, Method: PREINCUBATION) “active; positive”; (Test System: AMES SALMONELLA TYPHIMURIUM, Strain/Indicator: TA100, Metabolic Activation: RAT LIVER S-9, AROCLOR 1254, 10%, Method: PREINCUBATION) “active; positive”; (Test System: AMES SALMONELLA TYPHIMURIUM, Strain/Indicator: TA100, Metabolic Activation: RAT, LIVER, S-9, KC500 OR PHENOBARBITAL, Method: LIQUID SUSPENSION) “active; positive”. Besides, the mutagenic call reads like this: (Test System: AMES SALMONELLA TYPHIMURIUM, Strain/Indicator: YG1029, Metabolic Activation: MOUSE LIVER S-9, AROCLOR 1254, 10%, Method: PREINCUBATION) “active; positive”; (Test System: AMES SALMONELLA TYPHIMURIUM, Strain/Indicator: YG1029, Metabolic Activation: RAT LIVER S-9, AROCLOR 1254, 10%, Method: PREINCUBATION) “active; positive”.

These data come from PubChem BioAssay AID1259407 (Chemical Carcinogenesis Research Information System (CCRIS), 2018).
